Values of other authors in patent US7179253B2, “Method of tattoo removal” (3M Innovative Properties Company, priority 2003, dated 2007).

Test system: tattoo ink pigments in tattooed regions
Settings: guinea pigs; topical 5% cream started within six hours of tattoo application, continued for seven days

CC(C)Cn1cnc2c(N)nc3ccccc3c21 [imiquimod, 1-(2-methylpropyl)-1H-imidazo[4,5-c]quinolin-4-amine]
visible tattoo pigment in the tattooed regions at the conclusion of the treatment period: no pigment of any color was visible
